# “Also recorded” adds a separate entry of the source. Where a name gives a salt, the structure may show the parent alone.
# Assays:
# TNF α = TNF α levels in brain tissue homogenates (Western blot); type: in vivo, mouse; conditions: 3 hours after single dose, vs saline control
# Procedure: Brains perfused with PBS were isolated and dissected from four groups of mice 3 hours post injection of a single dose of ADR, anti-TNF α antibody, anti-TNF α antibody immediately followed by ADR, or saline treated mice. Brain was isolated and placed in 0.1 M PBS, pH 7.4 containing protease inhibitors, 4 μg leupeptin, 4 μg pepstatin, and 5 μg aprotinin, washed and minced in ice-cold PBS containing protease inhibitors. […] Protein concentration of brain homogenate was determined by the Bradford assay (Bradford, 1976).
# Perfused brain homogenates and isolated mitochondrial proteins were size-separated via 12.5% denaturing polyacrylamide gel electrophoresis (SDS-PAGE) and transferred to a nitrocellulose membrane. The membrane was blocked for 1 hour at room temperature in blocking solution consisting of 5% non-fat dried milk, 0.5% Tween-20 and Tris-buffered saline (TBST), pH 7.9. […] Immunoreactivities of the protein bands were detected by enhanced chemiluminescence autoradiography (ECL, Amersham Phamacia Biotech, Arlington Heights, Ill.) as described by the manufacturer.
# [1] = system: mitochondrial respiration complex II; experiment: Brain mitochondrial respiration, complex II (succinate); type: in vivo, mouse; conditions: succinate as substrate, after ADR
# Procedure: Mice were perfused via cardiac puncture with cold mitochondrial isolation buffer, the brain promptly removed, the cerebellum dissected away, and mitochondria immediately isolated from the freshly brain by a modification of the method described by Mattiazzi et al. (2002). Brain mitochondria were isolated in cold mitochondrial isolation buffer, containing 0.07 M sucrose, 0.22 M mannitol, 20 mM HEPES, 1 mM EGTA, and 1% bovine serum albumin, pH 7.2. Tissues were homogenized with a Dounce homogenizer and centrifuged at 1,500×g at 4° C. for 5 minutes before transferring the supernatant. The pellets were resuspended and centrifuged at 1,500×g at 4° C. for 5 minutes. […] Protein concentration of isolated mitochondria was determined by the Bradford assay (Bradford, 1976). […]
# Mitochondrial respiration was determined using Clark-type polarographic oxygen sensors (Hansatech Instruments, Kings Lynn, Norfolk, UK) to measure the rate of oxygen consumption. […] Oxygen consumption was measured with either pyruvate (10 mM) plus malate (10 mM) or succinate (10 mM) as substrates for respiration from complex I or complex II in the absence of exogenous ADP (state II) and after addition of 300 mM ADP (state III respiration). […] Respiration control ratios (RCR) were calculated as the ratios of state III and state II respiration as described previously by Estabrook (1967). […]
# cytochrome c = experiment: Cytochrome c release from mitochondria to cytosol (Western blot); type: in vivo, mouse; conditions: brain tissue 3 hours after ADR
# Procedure: Western blot analyses of cytochrome c and succinate dehydrogenase or β-actin were determined in mitochondrial or cytosolic fractions isolated from brain tissues 3 hours after mice were treated with ADR, and anti-TNF antibody immediately followed by ADR, and anti-TNF antibody, IgG, or saline as controls. Cytochrome c was decreased in mitochondria (*P<0.01) but increased cytosol after treatment with ADR or IgG followed by ADR. Succinate dehydrogenase or β-actin were used to normalize for protein loading. The Western blots shown a re a representative set of data of n=3 separate sets from individual animals. Quantification of all the data
# [2] = seventy-two hours after a single intraperitoneal injection of ADR; cited from earlier work
# p53 and Bcl-xL complex = experiment: Co-immunoprecipitation of p53 with Bcl-xL in brain mitochondria; type: in vivo, mouse; conditions: after ADR, vs saline control; hydrochloride
# Procedure: Isolated mitochondrial protein (500 μg) was resuspended in 500 μL RIPA buffer (9.1 mM Na2HPO4, 1.7 mM NaH2PO4, 150 mM NaCl, 0.5% sodium deoxycholate, 1% v/v Nonidet P40, 0.1% sodium dodecyl sulfate, pH 7.2). Protease inhibitors (0.1 mg PMSF and 1 μg aprotinin per mL RIPA) were added at the time of use followed by incubation with 5 μg/mL of mouse p53 antibody (Ab-11, Oncogene) at 4° C. overnight. Protein A/G-Agarose (50 μL) was added to the reaction mixture with the antibody. Immunocomplexes were collected by centrifugation at 1,000×g at 4° C. for 5 minutes, then washed four times with RIPA buffer. Immunoprecipitated samples were recovered by resuspending in 2×sample loading buffer, and p53 or Bcl-xL (Santa Cruz Biotechnology, Santa Cruz, Calif.) proteins were detected by Western blot. Immunoreactivity was evaluated on immunoblots by densitrometric analysis using a Bio-RAD densitometer (Bio-RAD Laboratory, Inc, Hercules, Calif., USA).
# caspase 3 = experiment: Caspase 3 activity in brain tissues; type: in vivo, mouse; conditions: 3 and 72 hours after 20 mg/kg ADR; hydrochloride
# [3] = system: p53, Bax, Bcl-xS, Bcl-xL, MnSOD in mitochondria; experiment: Immunoblots of pro- and anti-apoptotic proteins in brain mitochondria; type: in vivo, mouse
# Procedure: Perfused brain homogenates and isolated mitochondrial proteins were size-separated via 12.5% denaturing polyacrylamide gel electrophoresis (SDS-PAGE) and transferred to a nitrocellulose membrane. The membrane was blocked for 1 hour at room temperature in blocking solution consisting of 5% non-fat dried milk, 0.5% Tween-20 and Tris-buffered saline (TBST), pH 7.9. After blocking, the membrane was incubated overnight at 4° C. with primary antibodies against TNF α (Upstate, Lake Placid, N.Y.) and β-actin (Sigma, St. Louis, […].) in homogenate samples, or isolated mitochondria samples for p53 (Ab-11, Oncogene Research, Cambridge, Mass.), Bcl-xS/L (S-18), Bax (P-19) (Santa Cruz Biotechnology, Santa Cruz, Calif.), MnSOD (Upstate, Lake Placid, N.Y.), and glyceraldehyde-3-phosphate dehydrogenase (G-3-PDH, Trevigen, Gaithersburg, Md.) in blocking solution. The membrane was washed twice in TBST and incubated for 1 hour with horseradish peroxidase-conjugated secondary antibodies in blocking solution. After incubation with secondary antibodies, the membrane was washed twice with TBST and once in TBS (TBS without 0.5% Tween-20). Immunoreactivities of the protein bands were detected by enhanced chemiluminescence autoradiography (ECL, Amersham Phamacia Biotech, Arlington Heights, Ill.) as described by the manufacturer.
# The final protein concentration was 20-40 mg/ml.
# 3-nitrotyrosine = experiment: Nitrotyrosine-adducted proteins in isolated brain mitochondria (slot blot); type: in vivo, mouse; conditions: 3 hours after ADR 20 mg/kg, hydrochloride
# Procedure: 3-Nitrotyrosine levels, a peroxynitrite reaction product marker, were determined as described previously (Lauderback et al. 2001). Briefly, 5 μg isolated mitochondrial proteins were incubated with Laemmli sample buffer (0.125 M Trisma base, pH 6.8, 4% SDS, 20% glycerol) for 20 minutes, and then 250 ng protein were blotted onto the nitrocellulose membrane using a slot-blot apparatus. The membrane was rinsed with TBST buffer, blocked by incubation in the presence of 5% BSA, followed by incubation with rabbit polyclonal anti-nitrotyrosine antibody as primary antibody for 1 h. The membranes were washed with TBST buffer and further incubated with goat anti-rabbit horseradish peroxidase-conjugated secondary antibody for 1 h. After incubation with secondary antibody, the membrane was washed twice with TBST and once in TBS (TBS without 0.05% Tween-20). Immunoreactivities of the protein bands were detected by ECL (Amersham Phamacia Biotech) as described by the manufacturer. Blots were scanned with Adobe Photoshop and quantified by the densitometry method (Bio-Rad).
# [4] = after ADR 20 mg/kg, 3-72 hours, vs saline, hydrochloride
# [5] = after ADR, any time point studied
smiles,measurement,setting,value
"COc1cccc2c1C(=O)c1c(O)c3c(c(O)c1C2=O)C[C@@](O)(C(=O)CO)C[C@@H]3O[C@H]1C[C@H](N)[C@H](O)[C@H](C)O1 [ADR, Doxorubicin hydrochloride]",TNF α levels in brain tissue homogenates,TNF α,significantly increased
same,Brain mitochondrial respiration complex II,[1],no effect
same,Cytochrome c in cytosolic fraction,cytochrome c,increased
same,Cytochrome c in mitochondrial fraction,cytochrome c,decreased
same,Levels of protein oxidation and lipid peroxidation in brain tissues,[2],significant increase
same,p53 and Bcl-xL complex in brain mitochondria (Bcl-xL bands after anti-p53 immunoprecipitation),p53 and Bcl-xL complex,specific increases of p53 and Bcl-xL; also recorded: increased at 3 hours
same,Caspase 3 activity in brain tissues,caspase 3,significantly increased; also recorded: increased at 72 hours compared with 3 hours
same,Bax level in brain mitochondria,[3]; [4],increased with a similar kinetics to that of p53; also recorded: increased at 3 and 6 hours; also recorded: increase in protein density
same,p53 level in brain mitochondria,[3]; [4],"increased in mitochondria early times after ADR treatment (3, 6, 24 hours), then declined at 48, and 72 hours; also recorded: significantly increased at 3, 6, and 24 hours; also recorded: increase in protein density"
same,Bcl-xS level in brain mitochondria,[3]; [5],no significant changes
same,MnSOD level in brain mitochondria,[3]; [5],no significant changes
same,Tyrosine-nitrated proteins in brain mitochondria,3-nitrotyrosine; iNOSKO mice,no difference with controls
same,Tyrosine-nitrated proteins in brain mitochondria,3-nitrotyrosine; wild-type mice,significantly increased protein nitration

# Source: patent US20080131432A1, “Method of treating the chemotoxic effects of chemotherapeutic drugs on brain tissue” (University of Kentucky Research Foundation, priority 2005, published 2008)
